PMC8536644, “Enigmatic mechanism of the N-vinylpyrrolidone hepatocarcinogenicity in the rat” (Archives of Toxicology, 2021)
Several values for one entry are separate records, joined by “and”; a condition that tells them apart may be missing. Identical values can stand only once. Like-named read-outs stand apart in the source and are kept apart here.

What was measured:
rat lung cells = test: Comet assay, conventional (no FPG), lung; conditions: for Hedgehogs/100 cells (mean ± SD) / TI (%) (mean ± SD) / TI (%), mean of medians from 2 slides: lung, no FPG, 5 days; for TI (%), mean of medians from 2 slides: individual animals
Method: (§1) Animals were anesthetized by 3.5% isoflurane (approximately 3 min, evaporator Dräger Vapor 19.3) and then killed by cervical dislocation. The liver was removed and its left lateral lobe used for the Comet assay. The remainder of the liver was washed in saline and then in two aliquots shock frozen in liquid nitrogen and stored at − 80 °C for later examinations. Subsequently the lung was removed from the dead animal. Its left lobe was used for the Comet assay and the remainder treated as described above for the liver. Thereafter the femora were removed for the preparation of the bone marrow.
(§2) The Comet assay was performed under alkaline conditions according to the principles described by Singh et al. ([1988]) and Tice et al. ([2000]).
(§3) Liver and lung cells were obtained essentially as described by Hartmann et al. ([2004]) and by the Japanese Center for the Validation of Alternative Methods (JaCVAM [2009]). Single cells were obtained within 1 h after killing of the animals in order to minimize DNA damage during the preparation.
(§4) The organ parts (see above) were washed in mincing buffer (50 mM EDTA in HBSS [without Ca^2+ and Mg^2+] pH 7.5: DMSO 9:1 (v/v), the latter added shortly before use, stored at 4 °C), cut into 1 to 2-mm pieces in ice-cold mincing buffer and transferred to a cell sieve with 70-µm pores. The viability of the cell suspension was evaluated by the Trypan Blue Assay (Strober [2001]).
(§5) 100 µL of the obtained cell suspension was mixed at 37 °C with 900 µL Low Melting Agarose (LMA) (0.7% agarose in phosphate-buffered saline [PBS] [Biochrom, Berlin, Germany] without Ca^2+ and Mg^2+). 100 µL of this mixture was transferred to a slide, which had been coated with Normal Melting Agarose (NMA) (0.6% agarose in PBS without Ca^2+ and Mg^2+). The slides were protected with a cover slip and the agarose was hardened at approximately 4 °C. The cover slips were then removed and the slides put over night at 4 °C into lysis buffer (2.5 M NaCl, 125 mM NaOH, 127 mM EDTA, 10 mM Tris/NaOH, pH 10; 1% Triton X-100 and 10% DMSO (v/v), the latter two added before use) in order to lyse the cell membrane, nuclear membrane and remove the histone.
(§6) The then following procedures were performed in a shaded room to minimize UV-mediated DNA damage during the procedures.
(§7) Remaining lysis buffer or FPG buffer was removed by immersing/washing the slides in PBS (without Ca^2+ and Mg^2+).
The slides were then placed into the electrophoresis chamber, which was cooled and protected from light. Slides were covered with electrophoresis buffer (0.3 M NaOH, 1 mM EDTA, pH > 13) carefully avoiding air bubbles. The DNA was allowed to unwind (20 min). Thereafter the electrophoresis was started (25 V, 300 mA, […], 30 min). The slides were then washed (2 times 5 min) in neutralization buffer (0.4 M Tris/HCl, pH 7.5), dehydrated and fixed in 100% ethanol (1 min), dried at room temperature overnight and stored at room temperature protected from dust.
Quantitative evaluation of the Comet assays was performed by fluorescence microscopy after DNA staining with ethidium bromide.

rat liver cells = test: Comet assay in presence of FPG, liver; conditions: liver, with FPG, 5 days; for TI (%), mean of medians from 2 slides: individual animals
Method: as §1, §2, §3, §4, §5, §6
Those slides which were destined to be treated with the DNA base excision repair enzyme FPG (Sigma Aldrich, Steinheim, Germany) were washed (3 times for 5 min) with FPG buffer (0.04 M HEPES, 0.5 mM EDTA, 0.1 M KCl, pH 8; add shortly before use bovine serum albumin [BSA] to a final concentration of 0.02%). Subsequently 50 µL FPG-enzyme-buffer (prepared shortly prior to use by 30-fold dilution of the following suspension in FPG buffer: 7 µL FPG-enzyme (14 U) and 70 µL glycerol in 623 µL FPG-Puffer, stored at − 80 °C) was pipetted on the slide which was covered with a cover slide and incubated for 30 min at 37 °C while being placed on a humid filter paper. After hardening of the agarose cover slips were removed.
as §7

[1] = Trypan Blue viability of the single cell suspension, lung; assay type: in vivo, rat; conditions: rat, inhaled

Compound: C=CN1CCCC1=O [NVP, N-vinylpyrrolidone]
- Hedgehogs (rat lung cells; NVP-treated lung cells, with or without FPG): 1–7%
- Hedgehogs/100 cells (mean ± SD) (rat lung cells; female, 5 ppm inhalation): 2 ± 1 /100 cells
- TI (%) (mean ± SD) (rat lung cells; female, 5 ppm inhalation): 1.2 ± 0.34%
- TI (%), mean of medians from 2 slides (rat lung cells; female, 5 ppm inhalation): 0.7% and 1.2% and 1.5% and 1.6% and 1.3%
- Hedgehogs/100 cells (mean ± SD) (rat lung cells; female, 10 ppm inhalation): 2 ± 2 /100 cells
- TI (%), mean of medians from 2 slides (rat lung cells; female, 10 ppm inhalation): 0.4% and 0.9% and 0.5% and 0.6%
- Hedgehogs/100 cells (mean ± SD) (rat lung cells; female, 20 ppm inhalation): 2 ± 3 /100 cells
- TI (%) (mean ± SD) (rat lung cells; female, 20 ppm inhalation): 1.0 ± 0.32%
- TI (%), mean of medians from 2 slides (rat lung cells; female, 20 ppm inhalation): 0.7% and 0.9% and 1.2% and 1.0% and 1.6%
- Hedgehogs/100 cells (mean ± SD) (rat lung cells; male, 5 ppm inhalation): 4 ± 3 /100 cells
- TI (%), mean of medians from 2 slides (rat lung cells; male, 5 ppm inhalation): 1.8% and 0.6% and 0.7% and 0.8% and 1.9%
- Hedgehogs/100 cells (mean ± SD) (rat lung cells; male, 10 ppm inhalation): 7 ± 5 /100 cells
- TI (%) (mean ± SD) (rat lung cells; male, 10 ppm inhalation): 1.8 ± 1.94%
- TI (%), mean of medians from 2 slides (rat lung cells; male, 10 ppm inhalation): 5.7% and 1.3% and 1.2% and 0.7% and 1.0% and 1.1%
- Hedgehogs/100 cells (mean ± SD) (rat lung cells; male, 20 ppm inhalation): 3 ± 1 /100 cells
- TI (%) (mean ± SD) (rat lung cells; male, 20 ppm inhalation): 0.6 ± 0.28%
- TI (%), mean of medians from 2 slides (rat lung cells; male, 20 ppm inhalation): 0.4% and 0.9% and 0.6% and 0.3%
- Hedgehogs/100 cells (mean ± SD) (rat liver cells; female, 5 ppm inhalation): 4 ± 2 /100 cells
- TI (%), mean of medians from 2 slides (rat liver cells; female, 5 ppm inhalation): 6.5% and 8.4% and 9.0% and 9.3% and 5.6% and 7.1%
- Hedgehogs/100 cells (mean ± SD) (rat liver cells; female, 10 ppm inhalation): 3 ± 2 /100 cells
- TI (%) (mean ± SD) (rat liver cells; female, 10 ppm inhalation): 7.9 ± 2.74%
- TI (%), mean of medians from 2 slides (rat liver cells; female, 10 ppm inhalation): 5.5% and 10.7% and 5.6% and 5.3% and 9.4% and 11.0%
- Hedgehogs/100 cells (mean ± SD) (rat liver cells; female, 20 ppm inhalation): 4 ± 2 /100 cells
- TI (%) (mean ± SD) (rat liver cells; female, 20 ppm inhalation): 7.0 ± 1.97%
- TI (%), mean of medians from 2 slides (rat liver cells; female, 20 ppm inhalation): 9.2% and 5.2% and 8.3% and 6.3% and 8.6% and 4.4%
- Hedgehogs/100 cells (mean ± SD) (rat liver cells; male, 5 ppm inhalation): 1 ± 1 /100 cells
- TI (%) (mean ± SD) (rat liver cells; male, 5 ppm inhalation): 5.3 ± 1.09%
- TI (%), mean of medians from 2 slides (rat liver cells; male, 5 ppm inhalation): 4.3% and 5.8% and 5.2% and 4.0% and 7.0% and 5.7%
- Hedgehogs/100 cells (mean ± SD) (rat liver cells; male, 10 ppm inhalation): 2 ± 1 /100 cells
- TI (%) (mean ± SD) (rat liver cells; male, 10 ppm inhalation): 6.1 ± 1.67%
- TI (%), mean of medians from 2 slides (rat liver cells; male, 10 ppm inhalation): 8.3% and 7.5% and 3.7% and 4.9% and 6.5% and 5.8%
- Hedgehogs/100 cells (mean ± SD) (rat liver cells; male, 20 ppm inhalation): 2 ± 1 /100 cells
- TI (%) (mean ± SD) (rat liver cells; male, 20 ppm inhalation): 5.0 ± 1.09%
- TI (%), mean of medians from 2 slides (rat liver cells; male, 20 ppm inhalation): 6.8% and 4.4% and 5.0% and 4.7% and 3.6% and 5.6%
- viability at 5 days ([1]; both sexes, Wistar Crl:WI (Han), lung single cell suspension, lung cells, NVP-exposed, read-out: Viability, range of the individual animals): 93 to 100%
- viability at 5 days ([1]; female, Wistar, lung, 5 ppm, lung, female, Comet with FPG (Table 11), 5 ppm inhalation, 5 days, individual animals, read-out: Individual viability (%)): 99%
- viability at 5 days ([1]; female, Wistar, lung, 5 ppm, lung, female, Comet with FPG (Table 11), 5 ppm inhalation, 5 days, read-out: Viability (%) (mean ± SD)): 99 ± 1%
- viability at 5 days ([1]; female, Wistar, lung, 5 ppm, lung, female, no FPG, 5 ppm inhalation, 5 days, individual animals, read-out: Individual viability (%)): 99%
- viability at 5 days ([1]; female, Wistar, lung, 5 ppm, lung, female, no FPG, 5 ppm inhalation, 5 days, read-out: Viability (%) (mean ± SD)): 99 ± 1%
- viability at 5 days ([1]; female, Wistar, lung, 10 ppm, lung, female, Comet with FPG (Table 11), 10 ppm inhalation, 5 days, individual animals, read-out: Individual viability (%)): 98%
- viability at 5 days ([1]; female, Wistar, lung, 10 ppm, lung, female, Comet with FPG (Table 11), 10 ppm inhalation, 5 days, read-out: Viability (%) (mean ± SD)): 98 ± 1%
- viability at 5 days ([1]; female, Wistar, lung, 10 ppm, lung, female, no FPG, 10 ppm inhalation, 5 days, individual animals, read-out: Individual viability (%)): 98%
- viability at 5 days ([1]; female, Wistar, lung, 10 ppm, lung, female, no FPG, 10 ppm inhalation, 5 days, read-out: Viability (%) (mean ± SD)): 98 ± 1%
- viability at 5 days ([1]; female, Wistar, lung, 20 ppm, lung, female, Comet with FPG (Table 11), 20 ppm inhalation, 5 days, individual animals, read-out: Individual viability (%)): 98%
- viability at 5 days ([1]; female, Wistar, lung, 20 ppm, lung, female, Comet with FPG (Table 11), 20 ppm inhalation, 5 days, read-out: Viability (%) (mean ± SD)): 98 ± 1%
- viability at 5 days ([1]; female, Wistar, lung, 20 ppm, lung, female, no FPG, 20 ppm inhalation, 5 days, individual animals, read-out: Individual viability (%)): 98%
- viability at 5 days ([1]; female, Wistar, lung, 20 ppm, lung, female, no FPG, 20 ppm inhalation, 5 days, read-out: Viability (%) (mean ± SD)): 98 ± 1%
- viability at 5 days ([1]; male, Wistar, lung, 5 ppm, lung, male, Comet with FPG (Table 10), 5 ppm inhalation, 5 days, individual animals, read-out: Individual viability (%)): 97%
- viability at 5 days ([1]; male, Wistar, lung, 5 ppm, lung, male, Comet with FPG (Table 10), 5 ppm inhalation, 5 days, read-out: Viability (%) (mean ± SD)): 98 ± 1%
- viability at 5 days ([1]; male, Wistar, lung, 5 ppm, lung, male, no FPG, 5 ppm inhalation, 5 days, individual animals, read-out: Individual viability (%)): 97%
- viability at 5 days ([1]; male, Wistar, lung, 5 ppm, lung, male, no FPG, 5 ppm inhalation, 5 days, read-out: Viability (%) (mean ± SD)): 98 ± 1%
- viability at 5 days ([1]; male, Wistar, lung, 10 ppm, lung, male, Comet with FPG (Table 10), 10 ppm inhalation, 5 days, individual animals, read-out: Individual viability (%)): 99%
- viability at 5 days ([1]; male, Wistar, lung, 10 ppm, lung, male, Comet with FPG (Table 10), 10 ppm inhalation, 5 days, read-out: Viability (%) (mean ± SD)): 98 ± 2%
- viability at 5 days ([1]; male, Wistar, lung, 10 ppm, lung, male, no FPG, 10 ppm inhalation, 5 days, individual animals, read-out: Individual viability (%)): 99%
- viability at 5 days ([1]; male, Wistar, lung, 10 ppm, lung, male, no FPG, 10 ppm inhalation, 5 days, read-out: Viability (%) (mean ± SD)): 98 ± 2%
- viability at 5 days ([1]; male, Wistar, lung, 20 ppm, lung, male, Comet with FPG (Table 10), 20 ppm inhalation, 5 days, individual animals, read-out: Individual viability (%)): 100%
- viability at 5 days ([1]; male, Wistar, lung, 20 ppm, lung, male, Comet with FPG (Table 10), 20 ppm inhalation, 5 days, read-out: Viability (%) (mean ± SD)): 99 ± 1%
- viability at 5 days ([1]; male, Wistar, lung, 20 ppm, lung, male, no FPG, 20 ppm inhalation, 5 days, individual animals, read-out: Individual viability (%)): 100%
- viability at 5 days ([1]; male, Wistar, lung, 20 ppm, lung, male, no FPG, 20 ppm inhalation, 5 days, read-out: Viability (%) (mean ± SD)): 99 ± 1%
